Results: patent US20090298814A1, “Novel salts of conjugated psychotropic drugs and processes of preparing same” (RAMOT AT TEL AVIV UNIVERISTY LTD, priority 2005, published 2009)
Structures can show the parent of a compound that is named as a salt.

Experiments:
Type in all cases: physicochemical
[1] = Stability of AN-197 by daily HPLC over 24 days, mobile phase solution vs neat oil; details: 20° C.
Experimental: (§1) HPLC analyses were performed on a Water 2695 Separations Module, using a Luna C18 (2) 50 mm×4.6 mm×3 um column, a 5 μl injection volume and a 2487 dual wavelength detector under the following instrumental conditions: Mobile phase A: 0.1% formic acid; Mobile phase B: acetonitrile; Flow rate: 0.5 ml per minute; Mobile phase gradient: 0.0 minutes 90% A, 10% B, 14.0 minutes 20% A, 80% B, 15.0 minutes 90% A, 10% B and 20.0 minutes 90% A, 10% B; Run time: 20 minutes; Detection: UV at 254 nm; Column temperature: 40° C.
The stability of AN-197 was determined by performing an HPLC analysis daily during a period of 24 days and determining the appearance of perphenazine and GABA, the degradation products of AN-197. A sample of AN-197, prepared according to the procedure described above in Example 4 (Route B), was dissolved in the mobile phase solution used in the HPLC analysis (2:1 acetonitrile:water, pH=8) and was kept at 20° C. For comparison, a sample of neat AN-197 was kept under the same conditions and was similarly analyzed.

[2] = Stability of AN-197 under acidic conditions (citric acid solution); details: in ethyl acetate, stirred in citric acid solution overnight
Experimental: To evaluate the stability of AN-197 under acidic conditions, a sample of AN-197, prepared according to the procedure described in Example 4 (Route B) above, was dissolved in ethyl acetate and stirred in a citric acid solution overnight.

[3] = Stability of AN-197 in dichloromethane, acetonitrile or ethyl acetate heated to 40° C. overnight; details: dissolved in dichloromethane
Experimental: To evaluate the stability of AN-197 under conditions of a large scale production, characterized by longer procedure times, samples of AN-197, prepared according to the procedure described in Example 4 above (Route B) above, dissolved in dichloromethane, acetonitrile or ethyl acetate were heated to 40° C. overnight. […] It was therefore concluded that AN-197 is stable under such conditions.

[4] = Hygroscopicity of mesylate and maleate salts by Karl Fischer titration
Experimental: Water absorption and content measurements were carried out using a Karl Fischer (KF) titrator. Karl Fischer titration is a classic method in analytical chemistry that uses calometric titration to determine the moisture content of a sample, which is specific to water. The titration reaction taking place in the presence of a base and 50:50 methanol:dichloromethane as a titration solvent.
The accurately weighted samples (near 100 mg) of the tested compound were placed in the titrator to determine the amount of sample required for measuring 10-250 μg of water, and the water content was calculated accordingly.
(§2) Stability and hygroscopicity studies of the mesylate and maleate salts of the conjugate were carried out under various conditions. The hygroscopicity of the salts was determined by following the water content of the salt using the Karl Fischer (KF) titration analysis method. The chemical stability of the salts was determined by following the appearance of the degradation product perphenazine using HPLC analyses. The samples were kept at −20° C. under nitrogen, at room temperature in an open container, at room temperature in a sealed container and at 40° C. in a sealed container. The samples were tested at the end of the preparation procedure (t=0), 72 hours after the preparation time (t=72), 1 week after the preparation time (t=168) and two weeks after the preparation time (t=336).

[5] = Solubility in 1% weight/volume lactic acid solution; details: agitated 1 hour at room temperature
Experimental: 1.0 gram of each of the mesylate and maleate addition salts prepared as described herein was agitated in 10 ml of 1% weight/volume lactic acid solution for 1 hour at room temperature. Any solids remaining thereafter were filtered off and the filtrate was dried under vacuum until no further change in weight was detected. […] The calculated solubility obtained for the mesylate salt was more than 100 mg/ml.

[6] = Chemical stability of mesylate and maleate salts by HPLC under various storage conditions; details: for texture and color after storage: room temperature, open to the atmosphere
[7] = as above
Experimental: The chemical stability of the conjugates was determined by HPLC analyses and was measured by the relative peak areas of the substance and of at least one of its degradation products. Thus, as is further exemplified in the Examples section that follows, the chemical stability of the exemplary conjugates described above was measured during time periods that typically ranged from 1 day to 24 days, whereby the conjugates were kept in sealed or open containers, with or without nitrogen atmosphere, and at a temperature range of from −20° C. to 40° C.
as §1, §2

[8] = Open container kept at room temperature, t = 0 hours
[9] = Open container kept at room temperature, t = 72 hours
[10] = Open container kept at room temperature, t = 168 hours
[11] = Open container kept at room temperature, t = 336 hours
[12] = Sealed container kept at 40° C., t = 0 hours
[13] = Sealed container kept at 40° C., t = 72 hours
[14] = Sealed container kept at 40° C., t = 168 hours
[15] = Sealed container kept at 40° C., t = 336 hours
[16] = Sealed container kept at room temperature, t = 0 hours
[17] = Sealed container kept at room temperature, t = 72 hours
[18] = Sealed container kept at room temperature, t = 168 hours
[19] = Sealed container kept at room temperature, t = 336 hours
[20] = Sealed container kept at −20° C. under N2, t = 0 hours
[21] = Sealed container kept at −20° C. under N2, t = 72 hours
[22] = Sealed container kept at −20° C. under N2, t = 168 hours
[23] = Sealed container kept at −20° C. under N2, t = 336 hours
[24] = open container at room temperature, five weeks (about 840 hours)

In the case of `CC(C)(C)OC(=O)NCCCC(=O)OCCN1CCN(CCCN2c3ccccc3Sc3ccc(Cl)cc32)CC1` [AN-197, Perphenazine N-Boc-4-aminobutyrate], the “perphenazine content (HPLC)” value ([1]; AN-197 solution in HPLC mobile phase (2:1 acetonitrile:water, pH=8), after 24 days) is reported as 7.98%, the “perphenazine content (HPLC)” value ([1]; AN-197 solution in HPLC mobile phase (2:1 acetonitrile:water, pH=8), initial) is reported as 0.42% and the “perphenazine content (HPLC)” value ([1]; neat oil, after 24 days) is reported as 0.79%. For the same molecule, the “perphenazine content (HPLC)” value ([1]; neat oil, initial) was 0.42%, the “hydrolysis of the product” value [2] was “no hydrolysis” and the degradation [3] was “no degradation had occurred”.
`NCCCC(=O)OCCN1CCN(CCCN2c3ccccc3Sc3ccc(Cl)cc32)CC1` [maleate addition salt] showed a Water content % [4, 8] of 0.3%, a Water content % [4, 9] of 0.7% and a Water content % [4, 10] of 0.8%. It also gave a Water content % [4, 11] of 0.8%, a Water content % [4, 12] of 0.3% and a Water content % [4, 13] of 0.5%. It also gave a Water content % [4, 14] of 0.7%, a Water content % [4, 15] of 0.7% and a Water content % [4, 16] of 0.3%. It also gave a Water content % [4, 17] of 0.5%, a Water content % [4, 18] of 0.8% and a Water content % [4, 19] of 0.5%. It also gave a Water content % [4, 20] of 0.3%, a Water content % [4, 21] of 0.3% and a Water content % [4, 22] of 0.3%. The Water content % [4, 23] was 0.5%, the water content [4, 24] was 0.91% and the calculated solubility ([5]; listed as maleate salt) was 48 mg/mL. For the same molecule, the “purity (HPLC)” value [6, 24] was 94.98%, the “texture and color after storage” value ([6]; listed as maleate salt) was “slightly discolored, changing from yellow to light orange but stayed as a free flowing solid” and the Salt peak area [7, 8] was 96.54%. For the same molecule, the “Unidentified impurity peak area” value [7, 8] was 1.05%, the perphenazine peak area [7, 8] was 1.44% and the Salt peak area [7, 9] was 96.43%. For the same molecule, the “Unidentified impurity peak area” value [7, 9] was 0.98%, the perphenazine peak area [7, 9] was 1.44% and the Salt peak area [7, 10] was 96.82%. The “Unidentified impurity peak area” value [7, 10] was 0.94%, the perphenazine peak area [7, 10] was 1.46% and the Salt peak area [7, 11] was 96.00%. For the same molecule, the “Unidentified impurity peak area” value [7, 11] was 0.93%, the perphenazine peak area [7, 11] was 1.43% and the Salt peak area [7, 12] was 96.54%. The “Unidentified impurity peak area” value [7, 12] was 1.05%, the perphenazine peak area [7, 12] was 1.44% and the Salt peak area [7, 13] was 94.96%. For the same molecule, the “Unidentified impurity peak area” value [7, 13] was 2.16%, the perphenazine peak area [7, 13] was 1.52% and the Salt peak area [7, 14] was 94.32%. For the same molecule, the “Unidentified impurity peak area” value [7, 14] was 2.46%, the perphenazine peak area [7, 14] was 1.65% and the Salt peak area [7, 15] was 92.93%. For the same molecule, the “Unidentified impurity peak area” value [7, 15] was 2.79%, the perphenazine peak area [7, 15] was 1.80% and the Salt peak area [7, 16] was 96.54%. For the same molecule, the “Unidentified impurity peak area” value [7, 16] was 1.05%, the perphenazine peak area [7, 16] was 1.44% and the Salt peak area [7, 17] was 96.24%. The “Unidentified impurity peak area” value [7, 17] was 1.09%, the perphenazine peak area [7, 17] was 1.43% and the Salt peak area [7, 18] was 96.86%. For the same molecule, the “Unidentified impurity peak area” value [7, 18] was 1.11%, the perphenazine peak area [7, 18] was 1.40% and the Salt peak area [7, 19] was 95.69%. The “Unidentified impurity peak area” value [7, 19] was 1.24%, the perphenazine peak area [7, 19] was 1.47% and the Salt peak area [7, 20] was 96.54%. For the same molecule, the “Unidentified impurity peak area” value [7, 20] was 1.05%, the perphenazine peak area [7, 20] was 1.44% and the Salt peak area [7, 21] was 96.79%. For the same molecule, the “Unidentified impurity peak area” value [7, 21] was 0.99%, the perphenazine peak area [7, 21] was 1.38% and the Salt peak area [7, 22] was 96.85%. The “Unidentified impurity peak area” value [7, 22] was 0.98%, the perphenazine peak area [7, 22] was 1.39% and the Salt peak area [7, 23] was 96.69%. The “Unidentified impurity peak area” value [7, 23] was 1.03%, the perphenazine peak area [7, 23] was 1.39% and the stability in words ([7]; all storage conditions of Table 8) was “stable in all sample forms”. The “stability and hygroscopicity in words” value ([7]; as compared to the HCl and mesylate salt) was “more stable and less hygroscopic” and the “perphenazine (HPLC)” value [7, 24] was 1.46%.
For `NCCCC(=O)OCCN1CCN(CCCN2c3ccccc3Sc3ccc(Cl)cc32)CC1` [mesylate addition salt], the Water content % [4, 8] was 0.6%, the Water content % [4, 9] was 1.2% and the Water content % [4, 10] was 4.0%. The Water content % [4, 11] was 4.8%, the Water content % [4, 12] was 0.6% and the Water content % [4, 13] was 0.8%. For the same molecule, the Water content % [4, 14] was 1.2%, the Water content % [4, 15] was 0.9% and the Water content % [4, 16] was 0.6%. It also gave a Water content % [4, 17] of 0.8%, a Water content % [4, 18] of 1.3% and a Water content % [4, 19] of 1.5%. The Water content % [4, 20] was 0.6%, the Water content % [4, 21] was 0.6% and the Water content % [4, 22] was 0.7%. The Water content % [4, 23] was 0.6%, the calculated solubility ([5]; listed as mesylate salt) was “more than 100 mg/ml” and the “texture and color after storage” value ([6]; listed as mesylate salt) was “become sticky in texture and changed color from pink to black”. The Salt peak area [7, 8] was 97.91%, the perphenazine peak area [7, 8] was 1.39% and the Salt peak area [7, 9] was 90.30%. The perphenazine peak area [7, 9] was 8.53%, the Salt peak area [7, 10] was 81.40% and the perphenazine peak area [7, 10] was 17.68%. The Salt peak area [7, 11] was 61.97%, the “Unidentified impurity peak area” value [7, 11] was 0.05% and the perphenazine peak area [7, 11] was 35.74%. For the same molecule, the Salt peak area [7, 12] was 97.91%, the perphenazine peak area [7, 12] was 1.39% and the Salt peak area [7, 13] was 91.83%. The perphenazine peak area [7, 13] was 7.33%, the Salt peak area [7, 14] was 91.91% and the perphenazine peak area [7, 14] was 7.56%. For the same molecule, the Salt peak area [7, 15] was 87.17%, the perphenazine peak area [7, 15] was 11.63% and the Salt peak area [7, 16] was 97.91%. The perphenazine peak area [7, 16] was 1.39%, the Salt peak area [7, 17] was 95.84% and the perphenazine peak area [7, 17] was 3.17%. For the same molecule, the Salt peak area [7, 18] was 94.98%, the perphenazine peak area [7, 18] was 4.52% and the Salt peak area [7, 19] was 91.67%. It also gave a perphenazine peak area [7, 19] of 6.88%, a Salt peak area [7, 20] of 97.91% and a perphenazine peak area [7, 20] of 1.39%. For the same molecule, the Salt peak area [7, 21] was 98.08%, the perphenazine peak area [7, 21] was 1.34% and the Salt peak area [7, 22] was 98.22%. It also gave a perphenazine peak area [7, 22] of 1.26%, a Salt peak area [7, 23] of 98.24% and a perphenazine peak area [7, 23] of 1.21%. The stability in words ([7]; sealed container at −20° C. under nitrogen atmosphere) was “mostly stable”.
